Test results: patent US20130303490A1, “Inhibitors of HIV Infections and uses thereof” (Centre National De La Recherche Scientifique-CNRS, priority 2010, published 2013)
“Also recorded” adds a separate entry of the source. Like-named read-outs stand apart in the source and are kept apart here.

What was measured:
[1] = tested on: Ad8-luc virus in HOS CCR5 lacZ line; assay: Infection of HOS CCR5 lacZ cells (not expressing S1PR1) with Ad8-luc virus (luciferase activity); format: cell-based, HIV-1
[2] = tested on: Ad8-luc virion (nonreplicative R5-pseudotyped HIV-1) in HEK-293T CD4+ CCR5+ cells; assay: Infection of S1PR1-transfected HEK-293T CD4+ CCR5+ cells with Ad8-luc virion (luciferase activity); format: cell-based
Description: In order to test the influence of the expression of S1PR1 on infection with HIV-1, 50 000 HEK-293T CD4+ CCR5+ cells were transiently transfected by lipofection, by incubating them for 24 hours with a mixture of 50 ng of CMV-S1PR1 plasmid, 20 ng of the pRL-TK-Renilla Luciferase plasmid (Promega) and 0.5 μl of lipofectamine (Lipofectamine™ 2000, Invitrogen) in 150 μl of DMEM medium, 10% FCS, in a 96-well plate, incubated beforehand with a solution of D-polylysine for 30 min. […] 24 h after the transfection, the wells are washed with DMEM (BioWhittaker), and then the cells are infected with 40 ng of the Ad8-luc virion in 180 μl of culture medium. […] 24 h after the infection, the cells are washed once with culture medium, and put back in culture with 200 μl of DMEM, 10% FCS. 40 h to 48 h after the infection, the cells are washed once with PBS, and lysed with 50 μl of buffer, and then the Firefly and Renilla luciferase activities are measured sequentially in a luminometer using the Dual-Luciferase® Reporter Assay system (Promega, cat: E1910). The Renilla luciferase activity is used as a measure of the level of cell metabolism.

[3] = tested on: Ad8-luc virus in peripheral blood mononuclear cells (PBMCs); assay: Infection of PBMCs with Ad8-luc virus (luciferase activity); format: cell-based, HIV-1
Description: The HOS-CD4 line (AIDS Reagent Program, Rockville, Md.) and the HEK-293T line (simian virus 40 T antigen-transformed human embryonic kidney 293T, Genethon) are cultured in DMEM medium supplemented with 10% of FCS (fetal calf serum), 10 mM of glutamax-1, 100 U/ml of penicillin and 100 μg/ml of streptomycin. The HEK-293T CD4+ CCR5+ line (gift from Martine Biard-Piechaczyk, Institute of Biology, Montpellier, France) was obtained by transfection of CD4 and CCR5 genes using the HEK-293T line. The human PBMCs in culture are isolated from blood of healthy donors by density centrifugation on lymphocyte separation medium (Eurobio) and cultured in RPMI medium supplemented like the DMEM at 37° C., 5% CO2.

[4] = tested on: HIV-1 strain JR-CSF (R5 strain); assay: Humanized SCID mice (hu-PBL-SCID) infected with HIV-1, viral load by qPCR; format: in vivo, mouse (SCID, grafted with human PBMCs); conditions: FTY720 0.3 mg per kg per day by gavage from D-1, viral load D6, 9, 12; p=0.023 (FIG. 6)
Description: SCID mice have the cb17/Icr-Prkdc^scid/Crl genotype. These immunodepressed mice are housed in an A3/L3 animal house in cages with a filter lid, in a ventilated cage rack. After one week of acclimatization, the animals are reconstituted by intraperitoneal injection of 30×10^6 PBMCs obtained by density centrifugation of the leukocytes of an uncertified cytapheresis annulus from a healthy volunteer donor. The reconstitution is evaluated on the 13th day by assaying the human immunoglobulins (Igs) present in the serum of the mice by means of an Elisa assay using the anti-human whole Ig-PO antibody (MP Biomedical, cat n° 55230). The mice whose total Ig concentration is greater than 100 μg/ml are kept for the experiment, and are infected 14 days after the reconstitution with the HIV-1 strain JR-CSF (R5 strain) at 1000 TCID50 in 100 μl. Daily gavage with 100 μl of FTY720 (Cayman, sold by Interchim ref. BM8045) dissolved at 60 μg/ml in distilled water is begun one day before the infection and continued for 12 days. The untreated mice are given the same volume of distilled water by gavage. […] The viremies are evaluated by quantification of the viral ARN in the plasma of the mice by qPCR with the AmpliPrep/COBAS TaqMan HIV-1 test (Roche Diagnostics, ref. 05212294190). […]

[5] = HOS CCR5 lacZ cells not expressing S1PR1, 33 μM preincubation for one hour (FIG. 3), p<0.01

Molecule: FC(F)(F)c1cccc(-c2noc(-c3cc(-c4ccccc4)c(C(F)(F)F)s3)n2)c1 [SEW2871]
- decrease of the HIV infection [1, 5]: No significant difference; also recorded: does not significantly modify the infection

Molecule: CCCCCCCCc1ccc(CC[C@](N)(CO)COP(=O)(O)O)cc1 [FTY720-P]
- reduction of infection compared with the empty plasmid control ([2]; S1PR1-expressing HEK-293T CD4+ CCR5+ cells, FTY720-P 80 ng/ml for 30 min before addition of the virus, unstimulated S1PR1 alone gives 60%): 90%
- decrease of the HIV infection [1]: approximately 50%
- inhibition of the infection ([3]; PBMCs from a healthy donor, 1 μM preincubation, Ad8-luc for 72 h (FIG. 4)): approximately 60%

Molecule: CCCCCCCCc1ccc(CCC(N)(CO)CO)cc1.Cl [FTY720, 2-amino-2-[2-(4-octylphenyl)ethyl]propane-1,3-diol]
- decrease of the HIV infection [1, 5]: approximately 50%
- viremia / infection of the treated animals versus untreated group [4]: clear decrease in viremia; also recorded: significant decrease

Molecule: CCCCCCCCCCCCC/C=C/[C@@H](O)[C@@H](N)COP(=O)(O)O [Sphingosine-1-phosphate, sphingosine-1-phosphate]
- decrease of the HIV infection [1, 5]: approximately 50%
- inhibition at 1 µM ([3]; Human immunodeficiency virus 1, PBMC, read-out: inhibition of the infection): ~60%

B1: MIP1-β: a CCR5 ligand known to inhibit HIV infection (R&D systems) (protein, UniProt P13236 24-92, looked up)
C-C motif chemokine 4: APMGSDPPTACCFSYTARKLPRNFVVDYYETSSLCSQPAVVFQTKRSKQVCADPSESWVQEYVYDLELN
- decrease in infection compared with that of FTY720-P ([2]; same conditions, anti-CCR5 antibody 10 μg/ml, MIP-1β 100 ng/ml, 30 min before infection): of the same level
